Key:
Format in all cases: in vivo, mouse
NXS2 cells = assay: murine NXS2 neuroblastoma experimental liver metastasis model in A/J mice; conditions: FIG. 1B; 8 mice/group; day 27 after i.v. NXS2 inoculation; 8B6 25 μg i.v. twice weekly x3 weeks; 13-cis-RA 10 mg/kg per os
Description: FIG. 1. 13-cis-Retinoic acid enhances anti-neuroblastoma activity of anti-O-acetylated GD2 ganglioside in vivo. (A) Mice (8 animal/group) were inoculated with 2.5×10^5 NXS2 cells by i.v. injections on day 0. Antibody 8B6 treatment was performed on days 3, 7, 10, 14, 17, and 21 (cumulative dose=150 μg). 13-cis-retinoic acid treatment was given at 10 mg/kg, per os, five times weekly, day 17 to 21. Mice were euthanized 27 days post-tumor cell inoculation. (B) Anti-tumor efficacy was evaluated by determining the number of liver metastasis. Mean liver metastasis number±SEM of each treatment group, as depicted (** p<0.01; Mann-Whitney test). (C) The mice body weight was recorded for each treatment group, as indicated. Mean weight (mean±SEM, n=8) of mice on day 0 was defined as 100% weight. Weight in each group remained stable for the period of the treatment.
FIG. 4. […] (B) Anti-tumor efficacy was evaluated by determining the liver metastasis on fresh specimen. […] (C) The mice body weight was recorded for each treatment group, as indicated. […]
The anti-neuroblastoma efficacy of mAb 8B6 and chemotherapeutic treatments was determined in the murine NXS2 neuroblastoma experimental liver metastasis model in A/J mice, previously described (28). […] Mice were euthanized on day 27 post-tumor challenge, and anti-tumor efficacy was evaluated by determining the number of liver metastasis.

PD-L1 = PD-L1 tumor cell surface expression, flow cytometry of dissociated liver metastasis; conditions: FIG. 2B; residual liver metastasis; untreated mice 31.3±7.19%
Description: FIG. 2. Effect of retinoic acid alone or in combination with 8B6 therapy on O-acetyl-GD2 and PD-L1 expression in vivo. Tumor cells harvested from the indicated group were stained with either OAcGD2-specific mAb (A) or PD-L1-specific mAb (B). (A) Flow cytometry analysis was performed with single cell suspension obtained from the liver metastasis harvested from mice in FIG. 1 to assess the OAcGD2 expression, as indicated. […] The level of OAcGD2 expression remains stable after treatments (ns, not significant; p>0.5). (B) Single cell suspension from (A) were also tested for PD-L1 tumor cell surface expression, as indicated. The left panel indicates the percentage of PD-L1 positive tumor cells. […]
(§1) For flow cytometry analysis, cells were first incubated with a mAb specific for mouse CD16/CD32 to prevent nonspecific binding of primary antibodies against FcγR, and then, were labeled with specific conjugated mAbs. […] Quantification of total cell numbers by flow cytometry was performed done using fluorescent beads (C36950, Thermo Fisher, Waltham, MA, USA). Flow cytometric analysis were performed using an BD FACSCanto II (BD Bioscience) and data were analyzed using FlowJo software (Flowjo LLC, Oregon, OR, USA). The fold increase of tumor NK cell infiltration was calculated by dividing the number of NK cell infiltrated of each condition by the mean of the number of NK cell.

CD45+NKp46+CD3− NK cells = assay: tumor NK cell infiltration, flow cytometry; conditions: FIG. 3B; PBS control 0.88±0.2%
From the text: FIG. 3. 13-cis-Retinoic acid combined with mAb 8B6 increases PD-1+NK cell tumor infiltration. (A) Dot plots histograms showing the gating strategy used for flow cytometric identification of CD45+NKP46+CD3− NK cells in tumor cells. (B) Fold increase of total count of NK cells in tumor cells were achieved by flow cytometry of cells gated, as indicated. […] (C) Percentage of PD-1+NK cells in tumor cells from the indicated group.
Liver metastasis were dissociated with the mouse tumor dissociation kit and the gentle MACS dissociator (Miltenyi) according to the manufacturer's instructions. Single cell suspensions were obtained by passing through a 70 μm pore-size cell MACS SmartStrainer (Miltenyi). […]
as §1

Structure (SMILES): CC1=C(/C=C/C(C)=C/C=C/C(C)=C\C(=O)O)C(C)(C)CCC1 [13-cis-RA, 13-cis-retinoic acid]
- number of liver metastasis (mean±SEM) (NXS2 cells): 14.40±0.98
- percentage of PD-L1+ tumor cells (PD-L1): 39.45±9.76%
- intratumoral CD45+NKp46+CD3− NK cells (CD45+NKp46+CD3− NK cells): 2.49±0.29%

Reference: patent publication US20240228659A1, “NEW METHOD TO IMPROVE NK CELLS CYTOTOXICITY” (INSERM (INSTITUT NATIONAL DE LA SANTÉ ET DE LA RECHERCHE …, priority 2021, published 2024)
